In paper PMC3642328, “Ataxia Telangiectasia-Mutated (ATM) Kinase Activity Is Regulated by ATP-driven Conformational Changes in the Mre11/Rad50/Nbs1 (MRN) Complex*^([image sbox.jpg])” (The Journal of Biological Chemistry, 2013):

Experiments:
Format in all cases: biochemical
[1] = molecular target: T1, MRN (nucleotide site of Rad50) (Homo sapiens, UniProt Q92878); test: ATM kinase assay with analog-sensitive ATM Y2755A; conditions: N6-furfuryl-ATP as ATM nucleotide; MRN/DNA; AMP-PNP supports MRN activation of ATM
T1 construct: full-length Mre11/Rad50/Nbs1 coexpressed in Sf21 insect cells, purified; with Double-strand break repair protein MRE11; Nibrin
T1 sequence (Q92878 1-1312): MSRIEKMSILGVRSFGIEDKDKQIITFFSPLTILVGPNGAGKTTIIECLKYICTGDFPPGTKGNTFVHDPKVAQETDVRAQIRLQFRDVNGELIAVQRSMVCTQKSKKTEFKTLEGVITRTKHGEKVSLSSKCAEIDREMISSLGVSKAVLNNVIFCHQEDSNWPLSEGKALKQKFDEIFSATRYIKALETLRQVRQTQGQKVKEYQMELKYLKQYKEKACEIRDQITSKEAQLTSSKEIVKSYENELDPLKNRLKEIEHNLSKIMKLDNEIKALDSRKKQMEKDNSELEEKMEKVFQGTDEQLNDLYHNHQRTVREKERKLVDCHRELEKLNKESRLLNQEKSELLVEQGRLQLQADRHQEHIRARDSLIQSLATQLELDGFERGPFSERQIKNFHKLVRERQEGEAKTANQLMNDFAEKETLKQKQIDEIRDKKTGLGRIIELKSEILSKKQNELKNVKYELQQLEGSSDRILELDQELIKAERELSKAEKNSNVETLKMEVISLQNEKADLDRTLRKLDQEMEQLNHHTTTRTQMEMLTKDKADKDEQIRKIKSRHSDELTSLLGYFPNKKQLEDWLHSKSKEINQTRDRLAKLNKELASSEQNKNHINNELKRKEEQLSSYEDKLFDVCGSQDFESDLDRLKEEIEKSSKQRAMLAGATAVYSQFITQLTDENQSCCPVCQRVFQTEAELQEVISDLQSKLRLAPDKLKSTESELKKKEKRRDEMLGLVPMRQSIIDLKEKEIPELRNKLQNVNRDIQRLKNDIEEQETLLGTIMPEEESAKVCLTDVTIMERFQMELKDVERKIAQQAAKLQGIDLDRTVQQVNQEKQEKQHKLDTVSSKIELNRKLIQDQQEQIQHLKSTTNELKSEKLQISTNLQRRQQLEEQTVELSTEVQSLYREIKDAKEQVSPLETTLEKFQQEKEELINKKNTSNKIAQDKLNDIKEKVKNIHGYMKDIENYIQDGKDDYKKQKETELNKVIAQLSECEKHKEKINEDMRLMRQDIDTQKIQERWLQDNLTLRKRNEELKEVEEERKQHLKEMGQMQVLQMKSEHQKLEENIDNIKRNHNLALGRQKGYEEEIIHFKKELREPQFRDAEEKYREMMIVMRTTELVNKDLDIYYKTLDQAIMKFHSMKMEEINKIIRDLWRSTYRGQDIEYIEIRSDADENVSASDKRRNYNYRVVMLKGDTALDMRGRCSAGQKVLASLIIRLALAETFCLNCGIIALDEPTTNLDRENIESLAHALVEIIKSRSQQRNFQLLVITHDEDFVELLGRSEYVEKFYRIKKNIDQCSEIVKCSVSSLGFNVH
T1 sequence (P49959 2-708 partner): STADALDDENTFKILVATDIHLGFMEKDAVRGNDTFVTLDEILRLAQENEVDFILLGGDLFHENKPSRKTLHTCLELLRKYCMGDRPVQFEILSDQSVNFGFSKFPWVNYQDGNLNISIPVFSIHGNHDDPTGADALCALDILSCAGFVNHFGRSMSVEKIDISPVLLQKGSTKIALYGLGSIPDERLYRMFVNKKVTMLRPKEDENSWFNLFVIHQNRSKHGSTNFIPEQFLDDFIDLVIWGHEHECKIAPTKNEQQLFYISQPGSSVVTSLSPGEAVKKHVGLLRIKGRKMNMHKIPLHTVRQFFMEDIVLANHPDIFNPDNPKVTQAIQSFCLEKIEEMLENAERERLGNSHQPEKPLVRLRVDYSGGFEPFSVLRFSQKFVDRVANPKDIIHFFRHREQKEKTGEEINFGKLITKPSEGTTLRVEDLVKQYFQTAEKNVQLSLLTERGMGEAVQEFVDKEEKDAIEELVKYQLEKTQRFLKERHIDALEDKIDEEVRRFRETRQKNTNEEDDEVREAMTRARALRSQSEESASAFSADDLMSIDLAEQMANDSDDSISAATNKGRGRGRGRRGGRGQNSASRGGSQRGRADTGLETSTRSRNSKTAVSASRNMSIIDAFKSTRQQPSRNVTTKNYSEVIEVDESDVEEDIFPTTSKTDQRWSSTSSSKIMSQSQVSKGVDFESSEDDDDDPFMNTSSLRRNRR
T1 sequence (O60934 1-754 partner): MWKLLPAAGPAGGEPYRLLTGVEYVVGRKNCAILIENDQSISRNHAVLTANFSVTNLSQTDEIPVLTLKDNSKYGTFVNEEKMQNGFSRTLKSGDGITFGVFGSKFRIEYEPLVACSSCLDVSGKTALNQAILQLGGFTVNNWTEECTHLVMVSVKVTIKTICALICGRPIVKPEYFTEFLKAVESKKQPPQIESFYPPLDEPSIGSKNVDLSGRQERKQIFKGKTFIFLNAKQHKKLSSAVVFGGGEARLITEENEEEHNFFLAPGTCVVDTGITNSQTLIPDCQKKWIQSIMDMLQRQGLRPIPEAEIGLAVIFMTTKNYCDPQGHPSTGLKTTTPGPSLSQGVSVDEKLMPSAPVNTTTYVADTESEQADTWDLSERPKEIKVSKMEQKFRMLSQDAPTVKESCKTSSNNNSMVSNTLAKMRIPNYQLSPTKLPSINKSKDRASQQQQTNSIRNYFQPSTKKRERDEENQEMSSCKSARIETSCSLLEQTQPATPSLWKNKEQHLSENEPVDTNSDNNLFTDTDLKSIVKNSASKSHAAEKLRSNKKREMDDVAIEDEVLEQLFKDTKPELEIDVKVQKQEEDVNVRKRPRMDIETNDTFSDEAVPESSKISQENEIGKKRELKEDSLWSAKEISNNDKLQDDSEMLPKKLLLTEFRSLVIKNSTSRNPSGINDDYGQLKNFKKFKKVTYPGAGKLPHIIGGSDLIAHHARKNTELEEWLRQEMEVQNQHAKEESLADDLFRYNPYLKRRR

ATM = molecular target: T2, ATM (Homo sapiens, UniProt Q13315, Y2755A); test: kinase assay, GST-p53 Ser-15 phosphorylation, Western blot; conditions: H2O2-activated ATM without MRN; analog 1 mM; pH 7.5, 5 mM Mg, 30 C
T2 construct: full-length, Flag-tagged and HA-tagged, transiently expressed in human 293T cells, purified as dimer
T2 sequence (Q13315 2-3056 Y2755A): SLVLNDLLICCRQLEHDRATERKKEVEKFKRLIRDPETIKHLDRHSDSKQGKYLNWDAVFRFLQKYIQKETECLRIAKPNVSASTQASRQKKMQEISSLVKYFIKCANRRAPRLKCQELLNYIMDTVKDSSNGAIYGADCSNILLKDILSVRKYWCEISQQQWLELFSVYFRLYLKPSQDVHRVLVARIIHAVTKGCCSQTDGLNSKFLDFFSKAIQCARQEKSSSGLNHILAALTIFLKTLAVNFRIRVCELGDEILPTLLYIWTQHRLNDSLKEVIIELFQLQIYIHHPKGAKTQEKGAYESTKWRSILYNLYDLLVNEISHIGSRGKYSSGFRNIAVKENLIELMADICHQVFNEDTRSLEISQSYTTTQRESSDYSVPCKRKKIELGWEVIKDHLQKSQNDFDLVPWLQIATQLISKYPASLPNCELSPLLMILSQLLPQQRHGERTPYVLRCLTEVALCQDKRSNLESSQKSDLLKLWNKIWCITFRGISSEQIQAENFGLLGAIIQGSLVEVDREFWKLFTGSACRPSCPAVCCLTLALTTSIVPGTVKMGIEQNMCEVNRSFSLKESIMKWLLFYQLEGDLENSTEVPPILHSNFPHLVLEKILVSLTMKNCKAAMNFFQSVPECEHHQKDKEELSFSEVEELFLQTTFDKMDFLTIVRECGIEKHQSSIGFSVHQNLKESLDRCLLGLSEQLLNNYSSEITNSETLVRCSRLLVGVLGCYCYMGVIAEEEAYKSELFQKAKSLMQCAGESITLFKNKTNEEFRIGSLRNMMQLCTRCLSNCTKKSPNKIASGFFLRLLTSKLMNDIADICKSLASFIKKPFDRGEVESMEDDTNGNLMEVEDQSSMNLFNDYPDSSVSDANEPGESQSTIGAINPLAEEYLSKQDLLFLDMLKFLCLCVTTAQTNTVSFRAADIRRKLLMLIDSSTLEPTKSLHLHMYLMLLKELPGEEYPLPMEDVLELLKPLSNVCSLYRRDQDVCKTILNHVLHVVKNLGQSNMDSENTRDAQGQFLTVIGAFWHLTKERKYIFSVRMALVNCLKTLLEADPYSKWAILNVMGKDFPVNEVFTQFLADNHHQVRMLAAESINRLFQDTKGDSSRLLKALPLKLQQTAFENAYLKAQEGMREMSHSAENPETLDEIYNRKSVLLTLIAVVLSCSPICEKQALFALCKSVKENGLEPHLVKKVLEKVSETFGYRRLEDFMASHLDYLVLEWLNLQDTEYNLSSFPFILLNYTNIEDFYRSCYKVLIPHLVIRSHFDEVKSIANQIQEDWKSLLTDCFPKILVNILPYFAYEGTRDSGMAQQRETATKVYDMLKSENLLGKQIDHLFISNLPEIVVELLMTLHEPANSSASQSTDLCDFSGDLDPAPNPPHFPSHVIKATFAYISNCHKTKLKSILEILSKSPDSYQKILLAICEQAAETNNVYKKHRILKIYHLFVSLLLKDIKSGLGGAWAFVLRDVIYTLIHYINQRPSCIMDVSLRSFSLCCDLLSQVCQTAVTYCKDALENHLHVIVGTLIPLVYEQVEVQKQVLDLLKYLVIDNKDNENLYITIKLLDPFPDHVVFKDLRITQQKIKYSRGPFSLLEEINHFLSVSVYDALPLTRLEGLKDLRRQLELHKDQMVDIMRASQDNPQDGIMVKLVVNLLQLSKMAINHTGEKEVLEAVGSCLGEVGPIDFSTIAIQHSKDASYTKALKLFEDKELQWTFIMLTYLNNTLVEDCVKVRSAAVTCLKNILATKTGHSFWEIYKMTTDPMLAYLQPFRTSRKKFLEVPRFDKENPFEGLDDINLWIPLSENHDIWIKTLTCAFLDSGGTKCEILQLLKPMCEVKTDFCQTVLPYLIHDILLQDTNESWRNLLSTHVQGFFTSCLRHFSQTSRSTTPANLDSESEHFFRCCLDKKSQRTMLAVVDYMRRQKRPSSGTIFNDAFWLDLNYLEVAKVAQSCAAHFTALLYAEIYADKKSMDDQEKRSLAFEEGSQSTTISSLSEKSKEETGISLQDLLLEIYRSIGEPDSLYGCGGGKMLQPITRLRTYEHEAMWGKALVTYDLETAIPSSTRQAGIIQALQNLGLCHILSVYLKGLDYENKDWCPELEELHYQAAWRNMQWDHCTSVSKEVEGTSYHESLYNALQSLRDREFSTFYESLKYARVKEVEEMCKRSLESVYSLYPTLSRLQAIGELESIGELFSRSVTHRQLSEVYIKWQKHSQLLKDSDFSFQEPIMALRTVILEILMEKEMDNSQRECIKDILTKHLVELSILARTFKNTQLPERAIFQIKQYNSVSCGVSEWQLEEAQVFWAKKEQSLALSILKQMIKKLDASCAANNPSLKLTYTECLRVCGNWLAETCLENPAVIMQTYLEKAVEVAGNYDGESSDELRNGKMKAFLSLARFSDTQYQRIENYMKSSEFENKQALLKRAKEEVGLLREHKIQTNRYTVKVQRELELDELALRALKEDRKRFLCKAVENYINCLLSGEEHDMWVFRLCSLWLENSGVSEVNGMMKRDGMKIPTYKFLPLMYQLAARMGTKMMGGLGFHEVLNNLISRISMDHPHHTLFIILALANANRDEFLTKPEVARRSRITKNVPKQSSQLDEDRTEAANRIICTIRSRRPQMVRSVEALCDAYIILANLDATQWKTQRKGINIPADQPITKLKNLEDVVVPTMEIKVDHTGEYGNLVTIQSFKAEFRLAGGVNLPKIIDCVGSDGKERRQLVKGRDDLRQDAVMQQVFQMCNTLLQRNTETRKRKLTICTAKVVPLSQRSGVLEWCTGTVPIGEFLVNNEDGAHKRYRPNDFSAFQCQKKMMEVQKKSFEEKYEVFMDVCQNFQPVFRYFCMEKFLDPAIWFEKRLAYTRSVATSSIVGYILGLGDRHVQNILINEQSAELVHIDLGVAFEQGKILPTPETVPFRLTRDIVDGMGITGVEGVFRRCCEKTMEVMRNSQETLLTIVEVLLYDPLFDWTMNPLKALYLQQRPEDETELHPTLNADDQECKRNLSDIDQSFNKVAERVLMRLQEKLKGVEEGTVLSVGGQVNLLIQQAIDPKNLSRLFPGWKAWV

[2] = molecular target: T1, MRN (nucleotide site of Rad50); test: ATM kinase assay, inhibition of MRN/DNA-dependent activation; conditions: wild-type ATM, ATP present; pH 7.5, 5 mM Mg, 30 C; site (Rad50 ATP pocket) inferred

Compound	ATM kinase assay with analog-sensitive ATM Y2755A [1]	kinase assay, GST-p53 Ser-15 phosphorylation, Western blot (ATM)	ATM kinase assay, inhibition of MRN/DNA-dependent activation [2]
Nc1ncnc2c1ncn2[C@@H]1O[C@H](COP(=O)(O)OP(=O)(O)NP(=O)(O)O)[C@@H](O)[C@H]1O [AMP-PNP, adenosine 5′-(β,γ-imino)triphosphate]	Y2755A ATM phosphorylated p53 in the presence of MRN/DNA, N6-(furfuryl)-ATP, and AMP-PNP	–	–
CCCC(C)Nc1ncnc2c1ncn2[C@@H]1O[C@H](COP(=O)(O)OP(=O)(O)OP(=O)(O)O)[C@@H](O)[C@H]1O (stereo partly drawn) [N6-(1-methylbutyl)-ATP, N6-(1-methylbutyl)adenosine-5′-O-triphosphate]	–	N6-(1-methylbutyl)-ATP was utilized by the Y2755A mutant ATM	N6-(1-methylbutyl)-ATP inhibited the activation of wild-type ATM by MRN/DNA
